SMILES strings stand for the structures.

The target in this experiment is recombinant IL4I1 (Homo sapiens (Human), UniProt Q96RQ9). As to the kind of experiment: IL4I1 Enzymatic Assay (Amplex Red/HRP coupled H2O2 detection). It is filed as biochemical. The following applies: 1 nM IL4I1, 1 mM each Phe/Tyr/Trp, four-hour pre-incubation, 120 minutes reaction, top compound concentration of 10000 nM. The procedure: Interleukin 4 inducible protein 1 (IL4I1) is an L-amino oxidase that catalyzes the oxidation of aromatic residues (Phe, Trp and Tyr): L-amino acid+H2O+O2→2-oxo acid+NH3+H2O2. Equal molar of H2O2 and the corresponding alpha-ketoacid are produced when IL4I1 and substrate are added. In this assay, the hydrogen peroxide generated by IL4I1 are then detected through a coupled reaction with Amplex Red (10-acetyl-3,7-dihydroxyphenoxazine) and […] (HRP) to produce Resorufin product that could be detected in the form of fluorescence signals. The assessment of the inhibitory effect of small molecules (EC50) on IL4I1 is measured by the effectiveness of the compounds to inhibit the production of H2O2.
recombinant IL4I1, sequence (Q96RQ9 22-567): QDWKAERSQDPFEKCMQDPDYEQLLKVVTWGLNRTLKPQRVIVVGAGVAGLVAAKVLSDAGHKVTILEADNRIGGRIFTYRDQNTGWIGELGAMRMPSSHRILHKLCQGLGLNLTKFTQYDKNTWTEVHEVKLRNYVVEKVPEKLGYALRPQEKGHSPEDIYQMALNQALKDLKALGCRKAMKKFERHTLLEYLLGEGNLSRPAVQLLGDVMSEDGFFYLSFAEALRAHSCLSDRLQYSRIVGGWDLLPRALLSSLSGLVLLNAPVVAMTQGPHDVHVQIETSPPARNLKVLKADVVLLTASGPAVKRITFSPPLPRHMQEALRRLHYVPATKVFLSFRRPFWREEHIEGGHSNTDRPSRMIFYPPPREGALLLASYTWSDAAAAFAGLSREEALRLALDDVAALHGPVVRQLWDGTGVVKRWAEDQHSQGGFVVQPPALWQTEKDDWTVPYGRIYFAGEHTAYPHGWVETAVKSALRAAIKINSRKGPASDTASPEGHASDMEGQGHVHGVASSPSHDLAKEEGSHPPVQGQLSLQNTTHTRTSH
Using this assay, the potency (EC50) of each compound was determined from a ten-point (1:3 serial dilution; top compound concentration of 10000 nM) titration curve using the following outlined procedure. To each well of a black flat-bottom Greiner (Cat #781076) 384 well-plate, 25 nL of compound (0.1% DMSO in final assay volume of 25 μL) was dispensed, followed by the addition of 12.5 μL of 1× assay buffer (50 mM Hepes 7.0 and 0.005% Tween20 (Sigma, Cat #P8341; low peroxide grade)) containing 2 nM of recombinant IL4I1 (R&D Systems, Cat #5684-AO-020). Plates were placed in an ambient temperature humidified chamber for a four-hour pre-incubation with compound. Subsequently, each reaction was initiated by the addition of 12.5 μL 1× assay buffer containing 2 mM of each aromatic amino acids (Phe/Tyr/Trp), 0.1 mM Amplex Red and 2 U/mL of HRP. The final reaction in each well of 25 μL consists of 1 nM of IL4I1, 1 mM of each residues (Phe, Tyr and Trp), 0.05 mM Amplex Red and 1 U/mL of HRP. It should be noted that the concentrations of Amplex Red and HRP used here are in excess such that the conversion of H2O2 to Resorufin product occurs instantaneously and non-rate limiting. Reactions were allowed to proceed for 120 minutes followed by fluorescence readout on a Spectramax with the following set parameters: 544 nm excitation/590 nm emission, 570 nm cutoff (EnVision is an alternative reader). Dose-response curves were generated by plotting percent effect (% product conversion; Y-axis) vs. Log10 compound concentrations (X-axis). EC50 values were calculated using a non-linear regression, four-parameters sigmoidal dose-response model.
The EC50 is the concentration giving half of the maximal effect. Consider `O=C1COc2c(Cc3cc4cccc5c4n(c3=O)CCC5)cccc2N1` [Example 149, 8-((5-oxo-2,3-dihydro-1H,5H-pyrido[3,2,1-ij]quinolin-6-yl)methyl)-2H-benzo[b][1,4]oxazin-3(4H)-one], for which the concentration for a half-maximal effect (EC50) was determined as 150 nM.

In the case of `CC(C)(C#N)c1ccc(Cc2cc3ccccc3[nH]c2=O)cc1` [Example 97, 2-methyl-2-(4-((2-oxo-1,2-dihydroquinolin-3-yl)methyl)phenyl)propanenitrile], the concentration giving a half-maximal response (EC50) worked out at 1.4 nM.

Regarding `O=c1[nH]c2ccccc2cc1Cc1ccc2scnc2c1` [Example 156, 3-(benzo[d]thiazol-5-ylmethyl)quinolin-2(1H)-one], the EC50 was 1.4 nM.

For the compound `CC1(C)CN(c2ccc(Cc3cc4ccccc4[nH]c3=O)cn2)C(=O)O1` [Example 52, 5,5-dimethyl-3-(5-((2-oxo-1,2-dihydroquinolin-3-yl)methyl)pyridin-2-yl)oxazolidin-2-one], the EC50 is 10.7 nM.

Regarding `CCn1cc(Cc2cc3ccccc3[nH]c2=O)cn1` [Example 112, 3-((1-ethyl-1H-pyrazol-4-yl)methyl)quinolin-2(1H)-one], the concentration for a half-maximal effect (EC50) amounted to 60.5 nM.

With `O=c1[nH]c2ccccc2cc1Cc1ccc(CC2CNC2)cc1` [compound 64, 3-(4-(azetidin-3-ylmethyl)benzyl)quinolin-2(1H)-one], the 50% effective concentration (EC50) came to 10.8 nM.

As for `O=C1CCC(c2ccc(Cc3cc4ccccc4[nH]c3=O)cc2Cl)N1` (centres unmarked) [Example 181, 3-(3-chloro-4-(5-oxopyrrolidin-2-yl)benzyl)quinolin-2(1H)-one], the half-maximal effective concentration (EC50) was determined as 2.5 nM.

`O=c1[nH]c2ccccc2cc1Cc1nnc(-c2ncnc3c2CCC3)o1` [Example 40, 3-((5-(6,7-dihydro-5H-cyclopenta[d]pyrimidin-4-yl)-1,3,4-oxadiazol-2-yl)methyl)quinolin-2(1H)-one]: the EC50 turned out to be 23.4 nM.

In the case of `C[C@@H]1Oc2ccc(Cc3cc4ccccc4[nH]c3=O)cc2NC1=O` (stereo in doubt) [Example 142B, 2-methyl-6-((2-oxo-1,2-dihydroquinolin-3-yl)methyl)-2H-benzo[b][1,4]oxazin-3(4H)-one], the EC50 worked out at 81.4 nM.

Take `O=c1[nH]c2ccccc2cc1Cc1nnc(-c2ncn3ccccc23)o1` [Example 16, 3-((5-(imidazo[1,5-a]pyridin-1-yl)-1,3,4-oxadiazol-2-yl)methyl)quinolin-2(1H)-one]: the half-maximal effective concentration (EC50) amounted to 10.2 nM.

Consider `CC(=O)NCc1ncc(Cc2cc3ccccc3[nH]c2=O)cc1Cl` [Example 68, N-((3-chloro-5-((2-oxo-1,2-dihydroquinolin-3-yl)methyl)pyridin-2-yl)methyl)acetamide], for which the EC50 was 12.3 nM.

On to `O=c1[nH]c2ccccc2cc1Cc1ccc([C@H]2CCNC2)cc1` [65B], for which the EC50 is 9 nM.

Take `O=c1[nH]c2ccccc2cc1Cc1nnc(-c2cc3c(s2)CCC3)o1` [Example 39, 3-((5-(5,6-dihydro-4H-cyclopenta[b]thiophen-2-yl)-1,3,4-oxadiazol-2-yl)methyl)quinolin-2(1H)-one]: the concentration for a half-maximal effect (EC50) turned out to be 10.2 nM.

As to `CC1(c2ccc(Cc3cc4ccccc4[nH]c3=O)cc2)CNC1` [Example 79, 3-(4-(3-methylazetidin-3-yl)benzyl)quinolin-2(1H)-one], the EC50 stood at 11.5 nM.

As to `O=C1OCCN1c1ccc(Cc2cc3ccccc3[nH]c2=O)cn1` [Example 108, 3-(5-((2-oxo-1,2-dihydroquinolin-3-yl)methyl)pyridin-2-yl)oxazolidin-2-one], the EC50 came to 1.9 nM.

Consider `COC(=O)Nc1ccc(Cc2cc3ccccc3[nH]c2=O)cc1` [Example 119, methyl (4-((2-oxo-1,2-dihydroquinolin-3-yl)methyl)phenyl)carbamate], for which the concentration giving a half-maximal response (EC50) is 16 nM.

Consider `O=c1[nH]c2ccccc2cc1Cc1nnc(C2CCCCC2)o1` [Example 9, 3-((5-cyclohexyl-1,3,4-oxadiazol-2-yl)methyl)quinolin-2(1H)-one], for which the EC50 turned out to be 51.1 nM.

As for `O=c1[nH]c2ccccc2cc1Cc1nnc(-c2cn3cccnc3n2)o1` [Example 12, 3-((5-(imidazo[1,2-a]pyrimidin-2-yl)-1,3,4-oxadiazol-2-yl)methyl)quinolin-2(1H)-one], the EC50 was 429 nM.

As to `CC(=O)NCc1ncc(Cc2cc3ccccc3[nH]c2=O)cc1F` [Example 82], the EC50 came to 10 nM.

`O=c1[nH]c2cnccc2cc1Cc1cccc(OC(F)(F)F)c1` [Example 103, 3-(3-(trifluoromethoxy)benzyl)-1,7-naphthyridin-2(1H)-one]: the EC50 was found to be 466 nM.

Regarding `O=c1[nH]c2ccccc2cc1Cc1ccc2nn[nH]c2c1` [Example 132, 3-((1H-benzo[d][1,2,3]triazol-6-yl)methyl)quinolin-2(1H)-one], the EC50 worked out at 18.6 nM.

In the case of `C[C@]1(c2ccc(Cc3cc4ccccc4[nH]c3=O)cc2)CCC(=O)N1` (single isomer, unassigned) [Example 183A, (S or R)-3-(4-(2-methyl-5-oxopyrrolidin-2-yl)benzyl)quinolin-2(1H)-one], the half-maximal effective concentration (EC50) was 15.7 nM.

On to `CC(C)(C)n1cc(Cc2cc3ccccc3[nH]c2=O)cn1` [Example 110, 3-((1-(tert-butyl)-1H-pyrazol-4-yl)methyl)quinolin-2(1H)-one], for which the EC50 amounted to 11.5 nM.

For the compound `CS(=O)(=O)Nc1ccc(Cc2cc3ccccc3[nH]c2=O)cn1` [Example 48, N-(5-((2-oxo-1,2-dihydroquinolin-3-yl)methyl)pyridin-2-yl)methanesulfonamide], the EC50 amounted to 21.4 nM.

In the case of `O=C1OCCN1c1ccc(Cc2cc3cnccc3[nH]c2=O)cc1` [Example 61, 3-(4-((2-oxo-1,2-dihydro-1,6-naphthyridin-3-yl)methyl)phenyl)oxazolidin-2-one], the EC50 was found to be 2.7 nM.

On to `CC(=O)NCc1cccc(Cc2cc3ccccc3[nH]c2=O)c1` [Example 128, N-(3-((2-oxo-1,2-dihydroquinolin-3-yl)methyl)benzyl)acetamide], for which the 50% effective concentration (EC50) was determined as 30.4 nM.

On to `CC1(CO)CN(c2ccc(Cc3cc4ccccc4[nH]c3=O)cn2)C(=O)O1` (racemic) [Example 50, rac-5-(hydroxymethyl)-5-methyl-3-(5-((2-oxo-1,2-dihydroquinolin-3-yl)methyl)pyridin-2-yl)oxazolidin-2-one], for which the EC50 stood at 18.9 nM.

`N#Cc1ccc(F)c(-c2nnc(Cc3cc4ccccc4[nH]c3=O)o2)c1` [Example 33, 4-fluoro-3-(5-((2-oxo-1,2-dihydroquinolin-3-yl)methyl)-1,3,4-oxadiazol-2-yl)benzonitrile]: the EC50 was found to be 65.3 nM.

With `CC1CC(=O)NC1c1ccc(Cc2cc3ccccc3[nH]c2=O)cc1` (centres unmarked) [Example 45, 3-(4-(3-methyl-5-oxopyrrolidin-2-yl)benzyl)quinolin-2(1H)-one], the half-maximal effective concentration (EC50) was 6.7 nM.

As to `O=c1[nH]c2ccccc2cc1Cc1nnc(Cc2cnccn2)o1` [Example 31, 3-((5-(pyrazin-2-ylmethyl)-1,3,4-oxadiazol-2-yl)methyl)quinolin-2(1H)-one], the concentration giving a half-maximal response (EC50) was found to be 172 nM.

As to `O=C1COc2c(Cl)cc(Cc3cc4ccccc4[nH]c3=O)cc2N1` [Example 170, 8-Chloro-6-((2-oxo-1,2-dihydroquinolin-3-yl)methyl)-2H-benzo[b][1,4]oxazin-3(4H)-one], the EC50 is 1 nM.

Consider `O=C1OC(CO)CN1c1ccc(Cc2cc3ccccc3[nH]c2=O)cn1` (racemic) [Example 49, rac-5-(hydroxymethyl)-3-(5-((2-oxo-1,2-dihydroquinolin-3-yl)methyl)pyridin-2-yl)oxazolidin-2-one], for which the concentration giving a half-maximal response (EC50) stood at 15.6 nM.

Values taken from patent US20240287022A1 (Merck Sharp & Dohme LLC, priority 2021, published 2024).
